The values that follow come from patent US5877185A, “Synergistic compositions useful as anti-tumor agents” (priority 1995, dated 1999).

Like-named read-outs stand apart in the source and are kept apart here.

One data set deals with E ras cells. The experiment in a line: cytostatic and cytocidal activity. The class given is cell-based, bovine. To be noted: Bos taurus, average of three trials. The text has this:
pADPRT ligands that oxidize CCHC zinc fingers are not unique inhibitors of pADPRT. […] Hakam et al., FEBS Lett. 193:1-4 (1991). These ligands bind non-covalently to the nicotinamide site and internal DNA-seeking domains of pADPRT. Bauer et al., manuscript in preparation (1994). In contrast, CCHC-oxidizing ligands also bind non-covalently to the nicotinamide site, but initially attack the F1 zinc finger oxidatively. Id. […] Id. […] U.S. Ser. No. 08/076,313 filed Jun. 11, 1993.
Each value is the average of three trials. Each trial deviated from the average by no more than twenty percent. […] Another isomer of the iodo-nitro-benzamide series, 2-iodo-4-nitrobenzamide had no effect at the concentrations given above.

The next data set deals with Hep-G2. The data set can be described thus: cytotoxicity of INO2 BA with and without BSO, Hep-G2. The class given is cell-based. To be noted: Homo sapiens. The method, then: (§1) The concentration of BSO was 1 mM for all cell lines except HT 144, where the concentration was 0.25 mM. Cells were seeded in the recommended growth medium at a density of 1.5×10^4 cell/cm^2 into 2 cm^2 wells. Drugs were added simultaneously 4 hours after seeding, and incubation was continued for 48 hours at 37° C. in a 5% CO2 atmosphere. For assessment of drug effects cells were detached by trypsinization and counted in a hemacytometer.
(§2) Cell lines Nos. 1-4 were obtained from Dr. C. Benz, University of California, San Francisco. MDA 468 and MCF-7 human mammary cancer lines, MCF-7-B-ADR drug-resistant mammary cancer line, Du 145 drug-resistant human prostate cancer line, HT 144 human melanoma cell line, Hep-G2 human hepatocellular carcinoma line, and PC-12 rat pheochromocytoma line were obtained from the University of California Cell Culture Facility.

Another data set concerns L 1210. The experiment in a line: cytotoxicity of INO2 BA with and without BSO, L 1210. It counts as cell-based, murine. To be noted: Mus musculus, L1210, INO2 BA alone, 48 hours. On the procedure:
as §1, §2

In another data set the test system is CEM-4. The data set can be described thus: cytotoxicity of INO2 BA with and without BSO, CEM-4. To be noted: Homo sapiens. The class given is cell-based. The method, then: as §1, §2
A further data set deals with Molt-4. The data set can be described thus: cytotoxicity of INO2 BA with and without BSO, Molt-4. The class given is cell-based. To be noted: Homo sapiens, INO2 BA alone, 48 hours. On the procedure:
as §1, §2

A short description of data set [1]: non-toxicity in hamsters, intraperitoneal. The class given is in vivo.
In data set [2] the test system is SIV 22803 (AZT-resistant). The experiment in a line: AZT-resistant SIV propagation (syncytia formation), SIV 22803. The class given is cell-based. As to conditions: for Syncytia: BSO 0. The method, then: CEM × 174 (3 × 10^5 /ml) were infected with equal doses o
SIVmac239 or virus isolates from SIVmac239infected rhesus macaques (MMU
23686, 22803). Three days postinfection, INO2 BA concentrations
ranging from 0 to 300 μM with or without BSO were added, and incubated
for an additional 3 days. Cell cultures were then examined for syncytia
formation. The number of syncytia in cell cultures was counted in
arbitration fields under 40× magnification and scored as follows: […]

Another data set has as its system pADPRT. The experiment in a line: pADPRT zinc content / zinc ejection. It counts as biochemical. To be noted: 25° C. The method, then: FIG. 2A is a graph comparing the effects of NOBA and INOBA on the enzyme activity and zinc content of pADPRT. Inactivation was performed as described in Example III. In these experiments ^65 Zn^2+ -labeled pADPRT was used. The Zn^2+ content of pADPRT (upper panel) was determined as follows: two parallels of aliquots (4 μl) were pipetted into 500 μl of ice-cold washing solution (50 mM Tris, pH 7.7, 10 mM 2-mercaptoethanol and 0.5 mM EDTA) then filtered onto GF/C disks presoaked in washing solution (cold), quickly washed 4 times with 1 ml of ice-cold washing solution, dried, and the radioactivity determined. The protein-bound ^65 Zn^2+ is shown as percent of the untreated sample. Enzyme assays (lower panel) were performed as in FIG. 1.
For the release of Zn^2+ from transblotted pADPRT, the enzyme (3 μg per lane) was separated on SDS-PAGE, transblotted onto a nitrocellulose membrane, and renatured in the presence of ^65 ZnCl2. […] After incubation, 1 ml of the supernatant was counted for radioactivity, and the strips were washed 3 times with 2 ml of 50 mM Tris-HCl pH 7.4), 0.5 mM EDTA and 10 Mm 2-mercaptoethanol, and then dried and exposed to X-ray film. The intensity of the autoradiographic spots was quantitated by a scanner. […]

Another data set has as its system HIV-1 (MN strain). The experiment in a line: infectivity of NOBA-treated HIV-1 virions. As to conditions: 3000 or 6000 μM NOBA, 37° C. It counts as cell-based.
A short description of data set [3]: reduction by GSH and ascorbate in in vitro chemical tests. It counts as physicochemical.
Data set [4] has as its system leukemic and other malignant human cells. To be noted: cited from earlier work.

For the compound `NC(=O)c1ccc(I)c([N+](=O)[O-])c1` [INO2 BA, 4-iodo-3-nitrobenzamide], the IC50 was 60 µM in the data set with E ras cells (E ras cells, read-out: Cytostatic Effect I50); 4 µM in the data set on E ras cells (with 0.8 mM BSO, read-out: Cytocidal Effect I50); 120 µM with Hep-G2 (HepG2, INO2 BA alone, 48 hours, read-out: I50); 128 µM in the data set with L 1210 (read-out: I50); 80 µM in the data set with CEM-4 (CEM-4, INO2 BA alone, 48 hours, read-out: I50); 70 µM with Molt-4 (read-out: I50). Moreover, the IC100 in the data set on Hep-G2 (HepG2, 48 h, read-out: LD100) was 200 µM; in the data set with L 1210 (read-out: LD100), 256 µM; in the data set with CEM-4 (CEM-4, 48 h, read-out: LD100), 196 µM; in the data set on Molt-4 (read-out: LD100) it was 196 µM; in data set [2] (Simian immunodeficiency virus, 72 h, read-out: INO2 BA concentration abrogating cell fusion (syncytia)), more than 100 µM. In addition, the toxic effects result is “no toxic effects” in data set [1] (200 mg/kg intraperitoneally daily for 12 days) and “without toxic effects” in [1] (200 mg/kg intraperitoneally daily for 14 days, twelve hamsters). For the same compound, the Syncytia entry is “++ (10-20)” in data set [2] (INO2 BA 25 μM); “++ (10-20)” in [2] (INO2 BA 50 μM); “++ (10-20)” in data set [2] (INO2 BA 100 μM); “- (0)” in data set [2] (INO2 BA 200 μM); “- (0)” in data set [2] (INO2 BA 300 μM). In addition, the “syncytia-blocking concentration of INO2 BA” value in data set [2] (with 0.05 mM BSO) was 25 µM.
`NC(=O)c1cccc(N=O)c1` [NOBA, 3-nitrosobenzamide]: in the data set with pADPRT, the “time in which zinc ejection was complete” value is not above 2 h. Also, the infectivity result in the data set with HIV-1 (MN strain) is “complete loss of infectivity”. Moreover, the “reduction to the corresponding hydroxyl amines” value in [3] is “rapidly reduced”. In data set [4], the suppression of proliferation entry was “completely suppressed”.
